Assay results published in patent US20250041379A1, “METHODS AND COMPOSITIONS FOR THE TREATMENT OF CANCER” (Vigeo Therapeutics, Inc., priority 2021, published 2025).
No end group written: not given here.

Tested on: recurrent GBM (rGBM)
Assay: Phase I/II clinical study: clinical response and duration of treatment in recurrent GBM
Assay type: in vivo, human
Method: VT1021 was evaluated in a recently completed phase I/II open-label, multicenter, dose escalation (Part 1) and expansion (Part 2) clinical study in advanced, refractory, solid tumors including recurrent GBM (rGBM) (NCT03364400). Thirty-two subjects with rGBM were dosed in Part 2, 22 of which were considered evaluable as having completed ≥1 cycle of VT1021 treatment and tumor imaging during cycle 2. […] The blood samples were collected from GBM subjects in the expansion phase, who were treated by VT1021 at 11.8 mg/kg, twice weekly, by IV infusion. VT1021 levels were measured and analyzed among male and female subjects (FIG. 7). Days on study have been collected from the same group of subjects (FIG. 8). […] CD36 and CD47 levels have been measured by immunohistochemistry assays in the pre-treatment tumor biopsy samples of the GBM subjects (FIG. 9, FIG. 10). Levels of Tsp-1 were measured by ELISA for circulating Tsp-1 levels in the collected blood samples, and by immunohistochemistry for the level of Tsp-1 accumulated in the tumor biopsy samples (FIG. 10). The infiltration of immune and inflammatory cells, specifically, MDSCs, T cells and macrophages, were determined by immunohistochemical analysis of the levels of cell surface markers in the tumor biopsy samples of subjects (FIG. 11). […] Among 22 evaluable rGBM subjects, 3 had complete response (CR), 1 had partial response (PR), and 7 had stable disease (SD) with an average study duration of over 203 days. The overall disease control rate (DCR) was 50%. […] Of the 11 CR/PR/SDs, 6 were dual high (55%). […] Complete response scan images and lesion shrinkage for 1 of 3 subjects who achieved CR.

[1] = among 22 evaluable rGBM subjects
[2] = among the 9 CD36/CD47 dual-high rGBM subjects
[3] = the 9 CD36/CD47 dual-high rGBM subjects

**Q.** Which results are given for “cyclic DWLPK (also: cyclic, mode of cyclisation not given here) [VT1021, 5-amino acid cyclic peptide from prosaposin; Tsp-1-inducing agent]”?
**A.** treatment until lesion no longer measurable (1 CR rGBM subject, MRI lesion measurement): 9 cycles; time on study (1 CR rGBM subject, still on-going): 476 days; overall disease control rate (DCR) (22 evaluable rGBM subjects): 50%; subjects with complete response (CR) [1]: 3; subjects with partial response (PR) [1]: 1; subjects achieving CR [2]: 3; subjects achieving SD [2]: 3 subjects; average study duration (rGBM subjects with CR, PR or SD): over 203 days; DCR [3]: 67%; overall response rate [3]: 33.3%
